± gives the standard deviation of the averaged measurements.
Tests used:
Test in all cases: level (log10 ratio to DMSO vehicle control); higher = higher biomarker level / cell amount than vehicle control
[1] = compound: O=S(=O)(F)C(F)(F)C(F)(F)C(F)(F)C(F)(F)C(F)(F)C(F)(F)C(F)(F)C(F)(F)F [Perfluorooctanesulfonyl fluoride]; conditions: in DMSO
Procedure: (§1)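 BioMAP Diversity Plus panel of 12 human primary cell co-culture systems (3C, 4H, LPS, SAg, BT, BF4T, BE3C, CASM3C, HDF3CGF, KF3CT, MyoF, Mphg). Compounds were added 1 h before stimulation and left for 24 h (MyoF 48 h; BT 72 h for soluble read-outs or 6 d for IgG). Biomarkers were read by ELISA, cytotoxicity by SRB, PBMC viability and proliferation by Alamar Blue. Each well value was divided by the mean of 8 DMSO control wells on the same plate and log10 transformed; duplicate blinded samples were tested at 4 concentrations.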

[2] = compound: NC(=O)C(F)(F)C(F)(F)C(F)(F)C(F)F; conditions: in DMSO
Procedure: as §1

[3] = compound: FC(F)(F)C(F)(F)C(F)(F)C(F)(F)C(F)(F)C(F)(F)CC1CO1 [3-(Perfluorohexyl)-1,2-epoxypropane]; conditions: in DMSO
Procedure: as §1

[4] = compound: O=C(O)C(F)(F)C(F)(F)C(F)(F)C(F)(F)C(F)(F)C(F)(F)C(F)(F)C(F)(F)C(F)(F)C(F)F [11-H-Perfluoroundecanoic acid]; conditions: in DMSO
Procedure: as §1

Heptafluorobutyl iodide = compound: FC(F)(F)C(F)(F)C(F)(F)CI [Heptafluorobutyl iodide]; conditions: in DMSO
Procedure: as §1

[5] = compound: O=C(O)C=CC(F)(C(F)(F)F)C(F)(F)F [3-(Perfluoroisopropyl)-2-propenoic acid]; conditions: in DMSO
Procedure: as §1

Octafluoroadipamide = compound: NC(=O)C(F)(F)C(F)(F)C(F)(F)C(F)(F)C(N)=O [Octafluoroadipamide]; conditions: in DMSO
Procedure: as §1

[6] = compound: NS(=O)(=O)C(F)(F)C(F)(F)C(F)(F)C(F)(F)C(F)(F)C(F)(F)F [Perfluorohexanesulfonamide]; conditions: in DMSO
Procedure: as §1

[7] = compound: O=S(=O)(O)C(F)(F)C(F)(F)C(F)(F)C(F)(F)C(F)(F)C(F)(F)C(F)(F)C(F)(F)C(F)(F)C(F)(F)F [Sodium perfluorodecanesulfonate]; conditions: in DMSO
Procedure: as §1

[8] = compound: FC(F)(F)C(F)(F)CNCC(F)(F)C(F)(F)F [Bis(1H,1H-perfluoropropyl)amine]; conditions: in DMSO
Procedure: as §1

[9] = compound: COC(=O)C(F)(F)C(F)(F)OC(F)(C(F)(F)F)C(F)(F)OC(F)=C(F)F [Methyl perfluoro(3-(1-ethenyloxypropan-2-yloxy)propanoate)]; conditions: in DMSO
Procedure: as §1

[10] = compound: FC(F)(F)C(F)(F)C(F)(F)C(F)(F)C(F)(F)C(F)(F)C(F)(F)I [1-Iodopentadecafluoroheptane]; conditions: in DMSO
Procedure: as §1

[11] = compound: FC(F)(F)C(F)(F)C(F)(F)CC1CO1 [1H,1H-Heptafluorobutyl epoxide]; conditions: in DMSO
Procedure: as §1

Hexafluoroamylene glycol = compound: OCC(F)(F)C(F)(F)C(F)(F)CO [Hexafluoroamylene glycol]; conditions: in DMSO
Procedure: as §1

[12] = compound: O=S(=O)(O)CCC(F)(F)C(F)(F)C(F)(F)C(F)(F)C(F)(F)C(F)(F)F [6:2 Fluorotelomer sulfonic acid]; conditions: in DMSO
Procedure: as §1

[13] = compound: C=CC(=O)OCC(F)(F)C(F)(F)C(F)(F)COC(=O)C=C [1H,1H,5H,5H-Perfluoro-1,5-pentanediol diacrylate]; conditions: 6700 nM; in DMSO
Procedure: as §1

[14] = compound: C=C(C)C(=O)OCCC(F)(F)C(F)(F)C(F)(F)C(F)(F)C(F)(F)C(F)(F)F [6:2 Fluorotelomer methacrylate]; conditions: in DMSO
Procedure: as §1

Nonafluoropentanamide = compound: NC(=O)C(F)(F)C(F)(F)C(F)(F)C(F)(F)F [Nonafluoropentanamide]; conditions: in DMSO
Procedure: as §1

[15] = compound: O=S(=O)(Cl)C(F)(F)C(F)(F)C(F)(F)C(F)(F)C(F)(F)C(F)(F)C(F)(F)C(F)(F)F [Perfluoro-1-octanesulfonyl chloride]; conditions: in DMSO
Procedure: as §1

BT:B cell Proliferation
level (log10) ([1]; 6700 nM): -0.0145 ± 0.016
level (log10) ([1]; 20000 nM): -0.011 ± 0.013
level (log10) ([1]; 60000 nM): 0.008 ± 0.021
level (log10) ([2]; 6700 nM): 0.0115 ± 0.0092
level (log10) ([2]; 20000 nM): -0.001
level (log10) ([2]; 60000 nM): 0.0215 ± 0.0092
level (log10) ([3]; 6700 nM): 0.0065 ± 0.026
level (log10) ([3]; 20000 nM): 0.0035 ± 0.0035
level (log10) ([3]; 60000 nM): -0.01 ± 0.0085
level (log10) ([4]; 6700 nM): 0.023 ± 0.016
level (log10) ([4]; 20000 nM): 0.035 ± 0.031
level (log10) (Heptafluorobutyl iodide; 6700 nM): 0.021 ± 0.021
level (log10) (Heptafluorobutyl iodide; 20000 nM): 0.015 ± 0.0071
level (log10) (Heptafluorobutyl iodide; 60000 nM): 0.021 ± 0.0042
level (log10) ([5]; 6700 nM): 0.0085 ± 0.0021
level (log10) ([5]; 20000 nM): -0.011 ± 0.0014
level (log10) ([5]; 60000 nM): 0.012 ± 0.037
level (log10) (Octafluoroadipamide; 6700 nM): -0.008 ± 0.025
level (log10) (Octafluoroadipamide; 20000 nM): 0.018 ± 0.013
level (log10) (Octafluoroadipamide; 60000 nM): 0.016 ± 0.025
level (log10) ([6]; 6700 nM): 0.0025 ± 0.063
level (log10) ([6]; 20000 nM): 0.034 ± 0.047
level (log10) ([6]; 60000 nM): 0.086 ± 0.0042
level (log10) ([7]; 1500 nM): 0.0005 ± 0.021
level (log10) ([7]; 4400 nM): 0.0065 ± 0.0078
level (log10) ([7]; 13000 nM): 0.0015 ± 0.0035
level (log10) ([7]; 40000 nM): 0.0125 ± 0.0078
level (log10) ([8]; 6700 nM): -0.005 ± 0.04
level (log10) ([8]; 20000 nM): 0.0145 ± 0.00071
level (log10) ([8]; 60000 nM): 0.0285 ± 0.0035
level (log10) ([9]; 6700 nM): -0.009 ± 0.0099
level (log10) ([9]; 20000 nM): 0.01 ± 0.014
level (log10) ([10]; 6700 nM): -0.0045 ± 0.005
level (log10) ([10]; 20000 nM): 0.019 ± 0.0071
level (log10) ([11]; 6700 nM): -0.021 ± 0.038
level (log10) ([11]; 20000 nM): 0.008 ± 0.033
level (log10) ([11]; 60000 nM): -0.008 ± 0.034
level (log10) (Hexafluoroamylene glycol; 6700 nM): 0.0165 ± 0.013
level (log10) (Hexafluoroamylene glycol; 20000 nM): 0.0285 ± 0.0064
level (log10) (Hexafluoroamylene glycol; 60000 nM): 0.0195 ± 0.043
level (log10) ([12]; 6700 nM): 0.0405 ± 0.066
level (log10) ([12]; 20000 nM): 0.031 ± 0.017
level (log10) ([12]; 60000 nM): 0.0625 ± 0.098
level (log10) [13]: -0.24 ± 0.052
level (log10) ([14]; 6700 nM): -0.0325 ± 0.043
level (log10) ([14]; 20000 nM): -0.0255 ± 0.021
level (log10) ([14]; 60000 nM): -0.008
level (log10) (Nonafluoropentanamide; 6700 nM): 0.032 ± 0.0028
level (log10) (Nonafluoropentanamide; 20000 nM): -0.023 ± 0.0042
level (log10) (Nonafluoropentanamide; 60000 nM): 0.0085 ± 0.0092
level (log10) ([15]; 6700 nM): 0.01 ± 0.044
level (log10) ([15]; 20000 nM): 0.0345 ± 0.013
level (log10) ([15]; 60000 nM): 0.101 ± 0.011

BT:Secreted IgG
level (log10) ([1]; 6700 nM): 0.0025 ± 0.026
level (log10) ([1]; 20000 nM): 0.0185 ± 0.0035
level (log10) ([1]; 60000 nM): 0.004 ± 0.03
level (log10) ([2]; 6700 nM): 0.0115 ± 0.073
level (log10) ([2]; 20000 nM): 0.026 ± 0.0085
level (log10) ([2]; 60000 nM): -0.0005 ± 0.026
level (log10) ([3]; 6700 nM): -0.0085 ± 0.032
level (log10) ([3]; 20000 nM): -0.0035 ± 0.018
level (log10) ([3]; 60000 nM): -0.0005 ± 0.018
level (log10) ([4]; 6700 nM): 0.007 ± 0.021
level (log10) ([4]; 20000 nM): 0.0175 ± 0.0092
level (log10) (Heptafluorobutyl iodide; 6700 nM): 0.038 ± 0.02
level (log10) (Heptafluorobutyl iodide; 20000 nM): 0.0585 ± 0.018
level (log10) (Heptafluorobutyl iodide; 60000 nM): 0.0375 ± 0.028
level (log10) ([5]; 6700 nM): -0.041 ± 0.048
level (log10) ([5]; 20000 nM): -0.0035 ± 0.016
level (log10) ([5]; 60000 nM): -0.0205 ± 0.013
level (log10) (Octafluoroadipamide; 6700 nM): 0.0345 ± 0.018
level (log10) (Octafluoroadipamide; 20000 nM): 0.037 ± 0.0028
level (log10) (Octafluoroadipamide; 60000 nM): 0.0215 ± 0.0078
level (log10) ([6]; 6700 nM): -0.024 ± 0.016
level (log10) ([6]; 20000 nM): -0.0005 ± 0.046
level (log10) ([6]; 60000 nM): -0.133 ± 0.037
level (log10) ([7]; 1500 nM): -0.026 ± 0.038
level (log10) ([7]; 4400 nM): -0.0155 ± 0.022
level (log10) ([7]; 13000 nM): -0.0275 ± 0.046
level (log10) ([7]; 40000 nM): -0.028 ± 0.028
level (log10) ([8]; 6700 nM): 0.0095 ± 0.0021
level (log10) ([8]; 20000 nM): 0.001 ± 0.023
level (log10) ([8]; 60000 nM): 0.0185 ± 0.00071
level (log10) ([9]; 6700 nM): 0.006 ± 0.0014
level (log10) ([9]; 20000 nM): 0.007 ± 0.03
level (log10) ([10]; 6700 nM): -0.006 ± 0.05
level (log10) ([10]; 20000 nM): -0.01 ± 0.044
level (log10) ([11]; 6700 nM): 0.017 ± 0.038
level (log10) ([11]; 20000 nM): -0.0175 ± 0.043
level (log10) ([11]; 60000 nM): 0.008 ± 0.033
level (log10) (Hexafluoroamylene glycol; 6700 nM): 0.022 ± 0.048
level (log10) (Hexafluoroamylene glycol; 20000 nM): 0.0275 ± 0.037
level (log10) (Hexafluoroamylene glycol; 60000 nM): 0.023 ± 0.017
level (log10) ([12]; 6700 nM): 0.0005 ± 0.054
level (log10) ([12]; 20000 nM): -0.048 ± 0.031
level (log10) ([12]; 60000 nM): -0.081 ± 0.048
level (log10) [13]: -0.565 ± 0.17
level (log10) ([14]; 6700 nM): 0.0165 ± 0.00071
level (log10) ([14]; 20000 nM): -0.0065 ± 0.005
level (log10) ([14]; 60000 nM): -0.0095 ± 0.023
level (log10) (Nonafluoropentanamide; 6700 nM): -0.001 ± 0.0014
level (log10) (Nonafluoropentanamide; 20000 nM): -0.006 ± 0.0099
level (log10) (Nonafluoropentanamide; 60000 nM): -0.005 ± 0.014
level (log10) ([15]; 6700 nM): -0.033 ± 0.0042
level (log10) ([15]; 20000 nM): -0.0265 ± 0.039
level (log10) ([15]; 60000 nM): -0.042 ± 0.034

Source: the supplement of paper PMC10331698
